Data: the supplement of paper PMC10307832

What was measured:
Assay in all cases: relative viability (nuclei count vs DMSO), 5 days (fraction); higher = more cells survive
Tivantinib + Tozasertib = compound: O=C1NC(=O)[C@@H](c2cn3c4c(cccc24)CCC3)[C@@H]1c1c[nH]c2ccccc12 [Tivantinib] + Cc1cc(Nc2cc(N3CCN(C)CC3)nc(Sc3ccc(NC(=O)C4CC4)cc3)n2)n[nH]1 [Tozasertib] (partner 0.1 µM)
In short: (§1)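 Lung cancer cell lines were seeded in 1536-well plates and dosed by pin tool the next day, with either a single drug or a fixed anchor-drug dose combined with five library-drug doses (not always all listed) spaced in √10 steps. Five days later, one step fixed the cells and stained their nuclei (final 0.05% Triton X-100, 1% formaldehyde, 1 ug/ml Hoechst), and nuclei were counted on 4× images. Relative viability is the nuclei count in treated wells divided by the count in vehicle wells, and each value is the median of duplicate plates.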

Crenolanib + Crizotinib = compound: CC1(COc2ccc3c(c2)ncn3-c2ccc3cccc(N4CCC(N)CC4)c3n2)COC1 [Crenolanib] + C[C@@H](Oc1cc(-c2cnn(C3CCNCC3)c2)cnc1N)c1c(Cl)ccc(F)c1Cl [Crizotinib] (partner 1 µM)
In short: as §1

Tivantinib + Vorinostat = compound: O=C1NC(=O)[C@@H](c2cn3c4c(cccc24)CCC3)[C@@H]1c1c[nH]c2ccccc12 [Tivantinib] + O=C(CCCCCCC(=O)Nc1ccccc1)NO [Vorinostat] (partner 1 µM)
In short: as §1

Crenolanib + Decitabine = compound: CC1(COc2ccc3c(c2)ncn3-c2ccc3cccc(N4CCC(N)CC4)c3n2)COC1 [Crenolanib] + Nc1ncn([C@H]2C[C@H](O)[C@@H](CO)O2)c(=O)n1 [Decitabine] (partner 2 µM)
In short: as §1

Cell Line	relative viability (Tivantinib + Tozasertib; first compound 0.01 µM)	relative viability (Tivantinib + Tozasertib; first compound 0.03162 µM)	relative viability (Tivantinib + Tozasertib; first compound 0.1 µM)	relative viability (Tivantinib + Tozasertib; first compound 0.3162 µM)	relative viability (Crenolanib + Crizotinib; first compound 0.01 µM)	relative viability (Crenolanib + Crizotinib; first compound 0.03162 µM)	relative viability (Crenolanib + Crizotinib; first compound 0.1 µM)	relative viability (Crenolanib + Crizotinib; first compound 0.3162 µM)	relative viability (Crenolanib + Crizotinib; first compound 1 µM)	relative viability (Tivantinib + Vorinostat; first compound 0.01 µM)	relative viability (Tivantinib + Vorinostat; first compound 0.03162 µM)	relative viability (Tivantinib + Vorinostat; first compound 0.1 µM)	relative viability (Tivantinib + Vorinostat; first compound 0.3162 µM)	relative viability (Crenolanib + Decitabine; first compound 0.01 µM)	relative viability (Crenolanib + Decitabine; first compound 0.03162 µM)	relative viability (Crenolanib + Decitabine; first compound 0.1 µM)	relative viability (Crenolanib + Decitabine; first compound 0.3162 µM)	relative viability (Crenolanib + Decitabine; first compound 1 µM)
NCI-H520	0.471	0.494	0.395	0.434	0.743	0.915	0.802	0.933	0.983	0.672	0.672	0.694	0.703	0.54	0.492	0.451	0.575	0.481
NCI-H661	0.365	0.363	0.354	0.356	1.04	1.08		1.05	1.15	0.849	0.792	0.752	0.659	0.534	0.514	0.544	0.555	0.541
NCI-H727	0.641	0.558	0.463	0.515	0.858	0.956	0.806	0.973	0.824	1.11	1.22	1.35		0.872	0.851	0.877	0.997	0.904
NCI-H1755	0.525	0.602	0.507	0.608	0.835	0.932	0.832	0.917	0.854	0.861	0.793	0.695	0.917	0.678	0.74	0.743	0.743	0.697
HARA	0.122	0.12	0.104	0.0992	1.24	1	0.938	0.924	1	0.446	0.512	0.607	0.434	0.67	0.543	0.447	0.586	0.569
201T	0.985	0.897	0.919	0.88	1.04	1.02	1.01	1.04	0.976	0.894	0.835	0.898	0.907	0.863	0.839	0.822	0.884	0.843
NCI-H596	1.05	0.819	0.929	0.799	1.01	1.07	0.87	0.904	1.04	0.687	0.589	0.636	0.531	1.09	0.991	0.933	1.05	1.03
NCI-H2085	0.764	0.798	0.755	0.749	0.942	0.993	0.902	0.804	0.845	0.805	0.673	0.752	0.669		0.538	0.517	0.546	0.534
NCI-H2023	0.337	0.325	0.268	0.308	0.708	0.706	0.639	0.814	0.622	0.698	0.676	0.62	0.516	0.153	0.266	0.242	0.263	0.213
